Experimental data published in ChEMBL document CHEMBL1201862, “PubChem BioAssay data set” (2004).
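Five concentrations, 48 hours, 96-well plates. GI50: concentration for 50% inhibition of growth.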 Activity calls are given as the source filed them. Rule as the data show it: active = GI50 up to about 1.1 µM and inactive = higher.

Key:
Test in all cases: growth of human tumour cells (NCI), 48 h
[1] = test system: 786-0
[2] = test system: A498
[3] = test system: A549
[4] = test system: ACHN
[5] = test system: BT-549
[6] = test system: CAKI-1
[7] = test system: CCRF-CEM
[8] = test system: COLO 205
[9] = test system: DU-145
[10] = test system: EKVX
[11] = test system: HCC 2998
[12] = test system: HCT-116
[13] = test system: HCT-15
[14] = test system: HOP-62
[15] = test system: HOP-92
[16] = test system: HT-29
[17] = test system: Hs-578T
[18] = test system: IGROV-1
[19] = test system: K562
[20] = test system: KM12
[21] = test system: LOX IMVI
[22] = test system: M14
[23] = test system: MCF7
[24] = test system: MDA-MB-231
[25] = test system: MDA-MB-435
[26] = test system: MDA-N
[27] = test system: MOLT-4
[28] = test system: Malme-3M
[29] = test system: NCI-H226
[30] = test system: NCI-H23
[31] = test system: NCI-H460
[32] = test system: NCI-H522
[33] = test system: NCI/ADR-RES
[34] = test system: OVCAR-3
[35] = test system: OVCAR-4
[36] = test system: OVCAR-5
[37] = test system: OVCAR-8
[38] = test system: PC-3
[39] = test system: RPMI-8226
[40] = test system: RXF 393
[41] = test system: SF-268
[42] = test system: SF-295
[43] = test system: SF-539
[44] = test system: SK-MEL-28
[45] = test system: SK-MEL-2
[46] = test system: SK-MEL-5
[47] = test system: SK-OV-3
[48] = test system: SN12C
[49] = test system: SNB-19
[50] = test system: SNB-75
[51] = test system: SR
[52] = test system: SW-620
[53] = test system: T47D
[54] = test system: TK-10
[55] = test system: U-251
[56] = test system: UACC-257
[57] = test system: UACC-62
[58] = test system: UO-31
[59] = test system: HL-60

In the case of `N=C(N)N/N=C\c1ccc(C2CCNCC2)cc1`, the GI50 [1] is reported as > 100 µM (inactive), the GI50 [2] is reported as > 100 µM (inactive) and the GI50 [3] is reported as > 100 µM (inactive). The GI50 [4] was > 100 µM (inactive), the GI50 [5] was > 100 µM (inactive) and the GI50 [6] was > 100 µM (inactive). The GI50 [7] was > 100 µM (inactive), the GI50 [8] was > 100 µM (inactive) and the GI50 [9] was > 100 µM (inactive). For the same compound, the GI50 [10] was > 100 µM (inactive), the GI50 [11] was > 100 µM (inactive) and the GI50 [12] was > 100 µM (inactive). For the same compound, the GI50 [13] was > 100 µM, the GI50 [14] was > 100 µM (inactive) and the GI50 [15] was > 100 µM (inactive). The GI50 [16] was > 100 µM (inactive), the GI50 [17] was > 100 µM (inactive) and the GI50 [18] was > 100 µM (inactive). The GI50 [19] was > 100 µM (inactive), the GI50 [20] was > 100 µM (inactive) and the GI50 [21] was > 100 µM (inactive). For the same compound, the GI50 [22] was > 100 µM (inactive), the GI50 [23] was > 100 µM (inactive) and the GI50 [24] was > 100 µM (inactive). The GI50 [25] was > 100 µM (inactive), the GI50 [26] was > 100 µM (inactive) and the GI50 [27] was > 100 µM (inactive). For the same compound, the GI50 [28] was > 100 µM (inactive), the GI50 [29] was > 100 µM (inactive) and the GI50 [30] was > 100 µM (inactive). For the same compound, the GI50 [31] was > 100 µM (inactive), the GI50 [32] was > 100 µM (inactive) and the GI50 [33] was > 100 µM (inactive). For the same compound, the GI50 [34] was > 100 µM (inactive), the GI50 [35] was > 100 µM (inactive) and the GI50 [36] was > 100 µM (inactive). The GI50 [37] was > 100 µM (inactive), the GI50 [38] was > 100 µM (inactive) and the GI50 [39] was > 100 µM (inactive). The GI50 [40] was > 100 µM (inactive), the GI50 [41] was > 100 µM (inactive) and the GI50 [42] was > 100 µM (inactive). For the same compound, the GI50 [43] was > 100 µM (inactive), the GI50 [44] was > 100 µM (inactive) and the GI50 [45] was > 100 µM (inactive). The GI50 [46] was > 100 µM (inactive), the GI50 [47] was > 100 µM (inactive) and the GI50 [48] was > 100 µM (inactive). For the same compound, the GI50 [49] was > 100 µM (inactive), the GI50 [50] was > 100 µM (inactive) and the GI50 [51] was > 100 µM (inactive). For the same compound, the GI50 [52] was > 100 µM (inactive), the GI50 [53] was > 100 µM (inactive) and the GI50 [54] was > 100 µM (inactive). The GI50 [55] was > 100 µM (inactive), the GI50 [56] was > 100 µM (inactive) and the GI50 [57] was > 100 µM (inactive). The GI50 [58] was > 100 µM (inactive).
With `O=c1c2cc(Cl)ccc2[nH]c2cc(O)cc(O)c12` the GI50 [1] was > 10 µM (inactive), the GI50 [2] was > 10 µM (inactive) and the GI50 [3] was > 10 µM (inactive). For the same compound, the GI50 [4] was > 10 µM (inactive), the GI50 [5] was > 10 µM (inactive) and the GI50 [6] was > 10 µM (inactive). The GI50 [7] was > 10 µM (inactive), the GI50 [8] was > 10 µM (inactive) and the GI50 [9] was > 10 µM (inactive). For the same compound, the GI50 [10] was 4.12 µM (inactive), the GI50 [11] was > 10 µM (inactive) and the GI50 [12] was > 10 µM (inactive). The GI50 [13] was > 10 µM, the GI50 [59] was > 10 µM (inactive) and the GI50 [14] was > 10 µM (inactive). For the same compound, the GI50 [15] was > 10 µM (inactive), the GI50 [16] was > 10 µM (inactive) and the GI50 [17] was > 10 µM (inactive). For the same compound, the GI50 [18] was > 10 µM (inactive), the GI50 [19] was > 10 µM (inactive) and the GI50 [20] was > 10 µM (inactive). For the same compound, the GI50 [22] was > 10 µM (inactive), the GI50 [23] was > 10 µM (inactive) and the GI50 [24] was > 10 µM (inactive). The GI50 [25] was > 10 µM (inactive), the GI50 [26] was > 10 µM (inactive) and the GI50 [27] was > 10 µM (inactive). The GI50 [28] was > 10 µM (inactive), the GI50 [29] was 1.61 µM (inactive) and the GI50 [30] was 9.02 µM (inactive). For the same compound, the GI50 [31] was > 10 µM (inactive), the GI50 [32] was > 10 µM (inactive) and the GI50 [33] was > 10 µM (inactive). For the same compound, the GI50 [34] was 8.55 µM (inactive), the GI50 [35] was > 10 µM (inactive) and the GI50 [36] was > 10 µM (inactive). The GI50 [37] was > 10 µM (inactive), the GI50 [38] was > 10 µM (inactive) and the GI50 [39] was > 10 µM (inactive). For the same compound, the GI50 [40] was > 10 µM (inactive), the GI50 [41] was > 10 µM (inactive) and the GI50 [42] was > 10 µM (inactive). The GI50 [43] was > 10 µM (inactive), the GI50 [44] was > 10 µM (inactive) and the GI50 [45] was > 10 µM (inactive). For the same compound, the GI50 [46] was > 10 µM (inactive), the GI50 [47] was > 10 µM (inactive) and the GI50 [48] was > 10 µM (inactive). The GI50 [49] was > 10 µM (inactive), the GI50 [50] was 2.95 µM (inactive) and the GI50 [51] was > 10 µM (inactive). For the same compound, the GI50 [52] was > 10 µM (inactive), the GI50 [53] was > 10 µM (inactive) and the GI50 [54] was > 10 µM (inactive). The GI50 [55] was > 10 µM (inactive), the GI50 [56] was 5.41 µM (inactive) and the GI50 [57] was > 10 µM (inactive).
